From patent EP0633316A1, “Lys-aminopeptidase PepN from lactobacillus delbruckii ssp. Lactis, nucleic acids coding for it, and its use in fermentation processes” (EUROPEAN ECONOMIC COMMUNITY E.E.C., priority 1993, dated 1995)
Where two headings read alike, the source gives them in different places. Non-standard residues stand in square brackets, D forms with d. Residues, ends and D or L forms follow the SMILES beside them. *: point of attachment. Sta = CC(C)C[C@H](N)[C@@H](O)CC(=O)O; pNA = O=[N+]([O-])c1ccc(N*)cc1; Isovaleryl = CC(C)CC(=O)*

T1: PepN (Lactobacillus delbrueckii subsp. lactis, UniProt P37896)
T1 construct: made in house; host or cells: E. coli CM89 (pepN-deficient) harbouring plasmid pUK13
T1 sequence (P37896 1-843): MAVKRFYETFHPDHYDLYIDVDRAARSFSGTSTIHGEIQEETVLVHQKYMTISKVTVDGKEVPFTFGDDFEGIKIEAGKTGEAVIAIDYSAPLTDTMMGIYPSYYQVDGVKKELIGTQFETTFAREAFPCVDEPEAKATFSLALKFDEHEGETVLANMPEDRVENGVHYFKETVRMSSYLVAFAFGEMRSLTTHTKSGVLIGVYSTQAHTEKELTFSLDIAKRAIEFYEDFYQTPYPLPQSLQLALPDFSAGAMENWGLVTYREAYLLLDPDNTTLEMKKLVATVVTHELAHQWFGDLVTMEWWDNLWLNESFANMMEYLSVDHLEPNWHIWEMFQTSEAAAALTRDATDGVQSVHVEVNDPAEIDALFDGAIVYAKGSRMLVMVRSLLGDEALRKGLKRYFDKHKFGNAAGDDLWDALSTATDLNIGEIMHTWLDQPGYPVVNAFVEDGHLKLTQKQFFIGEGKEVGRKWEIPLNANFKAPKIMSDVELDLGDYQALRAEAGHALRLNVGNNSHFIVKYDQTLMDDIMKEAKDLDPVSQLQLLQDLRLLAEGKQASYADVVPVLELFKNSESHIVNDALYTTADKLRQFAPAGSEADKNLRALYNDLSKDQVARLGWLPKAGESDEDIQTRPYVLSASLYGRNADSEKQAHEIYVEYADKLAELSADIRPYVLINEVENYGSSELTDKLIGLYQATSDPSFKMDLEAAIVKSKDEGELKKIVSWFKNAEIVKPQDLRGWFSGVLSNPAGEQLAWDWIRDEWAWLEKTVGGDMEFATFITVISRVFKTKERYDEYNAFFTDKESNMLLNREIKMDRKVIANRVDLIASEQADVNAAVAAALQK

B1: PepN (Lactobacillus delbrueckii subsp. lactis) (protein)
chain: T1 sequence (P37896 1-843)
notes: made in house; host or cells: E. coli CM89 (pepN-deficient) harbouring plasmid pUK13

Assays:
Assay type in all cases: biochemical, Lactobacillus delbrückii ssp. lactis
[1] = target: T1, PepN; test: Substrate specificity of purified PepN against p-nitroanilide substrates; settings: p-nitroanilide substrates 1 mM, 10 min at 37°C, Tris-HCl 10 mM pH 8.0
Protocol: (§1) For characterization of the enzyme the p-nitroanilide subtrates (Bachem) were dissolved in water and added to the reaction mixture [Tris-HCl 10 mM, pH 8.0, and varying amounts of purified enzyme (1-200 ng)] to a concentration of 1 mM in a volume of 250 µl. Release of p-nitroaniline was measured after a 10 min incubation at 37°C at […] in a LKB Ultrospec plus spectrophotometer. For rapid screening of active fractions during purification of the enzyme, samples were prepared in micro titer plates and measured in a BIORAD model 2550 EIA reader.

[2] = target: T1, PepN; test: biochemical; settings: for activity at 1000 µM: read-out: relative activity
Protocol: The percentages of relative activity indicated above, correspond to residual activities after addition of the inhibitor as compared with the control without inhibitor. The conditions and methods for determination are taken from "Proteolytic enzymes, a practical approach, Beynon R.J. and Bond J.S., Oxford University Press 1989." (Chapter 4, Determination of protease mechanism, Ben M. Dunn).
as §1
To study the mechanism of enzyme action, the inhibitors phenylmethansulphonyl fluoride (PMSF) at a concentration of 1 mM, pepstatin A at 1 µg/ml, L-trans-epoxysuccinyl-leucylamide(4-guanidino)-butane (E-64) at 0.1 mM, and 1,10-phenanthroline or EDTA at 1 mM were added to the enzyme and incubated for 30 min at 37°C. The substrate lys-p-nitroanilide was added and activity was measured spectrophotometrically by the release of p-nitroaniline.

[3] = substrate: NCCCC[C@H](N)C(=O)Nc1ccc([N+](=O)[O-])cc1; test: Substrate specificity of purified PepN against p-nitroanilide substrates; settings: other: Lineweaver-Burk plot; pH 8.0; 37.0 °C
Protocol: as §1

[4] = PMSF 1 mM, pepstatin A 1 µg/ml, E-64 0.1 mM, 1,10-phenanthroline or EDTA 1 mM, 30 min at 37°C, substrate lys-p-nitroanilide

Row | Molecule | relative activity (%) [1] | further results
1 | C[C@H](N)C(=O)N1CCC[C@H]1C(=O)Nc1ccc([N+](=O)[O-])cc1 [Ala-Pro-pNA] (H-Ala-Pro-pNA) | 0% | –
2 | N[C@@H](Cc1ccccc1)C(=O)Nc1ccc([N+](=O)[O-])cc1 [Phe-pNA] | 8% | –
3 | CC(C)CC(NC(=O)C1OC1C(=O)O)C(=O)NCCCCN=C(N)N [E-64, L-trans-epoxysuccinyl-leucylamide(4-guanidino)-butane] | – | effect on enzyme activity [2, 4]: no effect
4 | N[C@@H](Cc1ccc(O)cc1)C(=O)Nc1ccc([N+](=O)[O-])cc1 [Tyr-pNA] | 2% | –
5 | c1cnc2c(c1)ccc1cccnc12 [Phenanthroline, 1,10-phenanthroline] | – | effect on enzyme activity [2, 4]: full inhibition; activity at 1000 µM ([2]; end concentration 1 mM, residual activity after addition of the inhibitor compared with control without inhibitor): 4%
6 | O=C(Nc1ccc([N+](=O)[O-])cc1)[C@@H]1CCCN1 [Pro-pNA] | 2% | –
7 | CC(C)CC(=O)N[C@H](C(=O)N[C@H](C(=O)N[C@@H](CC(C)C)[C@@H](O)CC(=O)N[C@@H](C)C(=O)N[C@@H](CC(C)C)[C@@H](O)CC(=O)O)C(C)C)C(C)C [Pepstatin A, pepstatin A] (Isovaleryl-VV[Sta]A[Sta]-OH) | – | effect on enzyme activity [2, 4]: no effect
8 | C[C@H](N)C(=O)Nc1ccc([N+](=O)[O-])cc1 [Ala-pNA] | 12% | –
9 | NCC(=O)Nc1ccc([N+](=O)[O-])cc1 [Gly-pNA] | 1% | –
10 | CC(C)C[C@H](N)C(=O)Nc1ccc([N+](=O)[O-])cc1 [Leu-pNA] | 19% | –
11 | O=C(O)CN(CCN(CC(=O)O)CC(=O)O)CC(=O)O [EDTA] | – | effect on enzyme activity [2]: full inhibition; activity at 1000 µM [2]: 3%
12 | O=S(=O)(F)Cc1ccccc1 [PMSF, phenylmethansulphonyl fluoride] | – | effect on enzyme activity [2, 4]: no effect
13 | NCCCC[C@H](N)C(=O)Nc1ccc([N+](=O)[O-])cc1 [Lys-pNA, lys-p-nitroanilide] | 100% | –
14 | B1 | – | Km [3]: 70 µM
